Like-named read-outs stand apart in the source and are kept apart here.
Tested on: E. multilocularis metacestodes
Test: PGI-assay: drug-induced damage on in vitro cultured metacestodes (Pathogen Box screening cascade and EC50)
Type: cell-based, Echinococcus multilocularis
Conditions: for PGI release, % of the Tx-100 control, 5d / PGI release, % of the Tx-100 control, 12d / cytotoxicity at 10 µM: 10 µM, singlets; for PGI release, % of Tx-100 control, average, 5d / PGI release, % of Tx-100 control, average, 12d: confirmatory screening at 10 µM in triplicates, values as % of Tx-100 control; for cytotoxicity at 10 µM: Echinococcus multilocularis
[1] = 120 h, 5 days of incubation, read-out: PGI release, % of the Tx-100 control, 5d
[2] = 288 h, 12 days of incubation, read-out: PGI release, % of the Tx-100 control, 12d

Structure (SMILES)	PGI release, % of the Tx-100 control, 5d (5 days of incubation) [%]	PGI release, % of the Tx-100 control, 12d (12 days of incubation) [%]	PGI release, % of Tx-100 control, average, 5d (5 days of incubation) [%]	PGI release, % of Tx-100 control, average, 12d (12 days of incubation) [%]	cytotoxicity at 10 µM [1] [%]	cytotoxicity at 10 µM [2] [%]
COc1cccc(-c2cc3c(Nc4cccnc4)nccc3[nH]2)c1 [MMV392832]	0.24	-1.65				
CCC(Sc1nc2ccccc2o1)C(=O)Nc1nnc(C)s1 (stereo not drawn) [MMV611037]	-0.81	-1.11				
COc1cccc(OC)c1C(=O)Nc1ccc(Cl)c(-c2nc3ccccc3s2)c1 [MMV676472]	5.75	51.73	0.98	2.19		
C[C@H]1COC2(CCN(c3nc(=O)c4cc(C(F)(F)F)cc([N+](=O)[O-])c4s3)CC2)O1 [MMV676603]	-4.72	4.80				
Cc1cc(NC(=O)c2ccc(Oc3ccc(Cl)cc3O)o2)no1 [MMV688955]	-0.20	-3.41				
O=C(COc1cccc(F)c1)Nc1nc(-c2ccccn2)cs1 [MMV676409]	-3.57	-0.58				
O=C(Nc1c(O)cccc1-c1nc2c(C(=O)O)cccc2o1)c1cc(-c2ccccc2)on1 [MMV676008]	-0.73	-0.73				
CCCCc1ccc(C(=O)Nc2nccc3ccccc23)nc1 [MMV687254]	-0.76	-1.68				
c1csc(-c2cnc3sc(NCC4CCOCC4)nn23)c1 [MMV010764]	-0.61	-4.41				
COc1ccccc1CNC(=O)c1cc(C2CC2)nc2c1cnn2C(C)C [MMV020517]	-0.60	-1.00				
COc1ccc(Cn2cnc3c(-c4ccco4)nc(Cl)nc32)cc1 [MMV687170]	0.26	-3.06				
NS(=O)(=O)c1cncc(-c2ccc3nccc(-c4cn[nH]c4)c3n2)c1 [MMV024101]	0.37	1.27				
CNC(=O)CNc1nc(-c2ccccn2)nc2scc(-c3ccccc3)c12 [MMV1029203]	-5.65	6.41				
CCc1nc2ccccc2n1CC(O)COc1cc(C)ccc1Cl (stereo not drawn) [MMV676449]	0.81	2.81				
Cc1ccc(NC(=O)c2cc(S(=O)(=O)NC(C)(C)C)ccc2C)nc1 [MMV020289]	-0.85	-0.97				
Cc1cccc(NC(=O)c2cc(S(=O)(=O)N(C)c3ccc(F)cc3)ccc2Cl)n1 [MMV676528]	-0.45	0.71				
O=C(c1n[nH]c2c1CCCC2)N1CCN(Cc2ccc3c(c2)OCO3)CC1 [MMV676389]	1.07	3.62				
CN1CCC(c2cc(-c3ccncc3)c(-c3ccc(F)cc3)[nH]2)CC1 [MMV688703]	0.17	-2.29				
NS(=O)(=O)c1cccc(-c2ccc3ncc(N4CCOCC4)nc3c2)c1 [MMV023860]	-0.05	-0.27				
CC1=Nc2ccc(Cl)cc2C(c2ccccc2)N1CCNC(=O)CN(C)C (stereo not drawn) [MMV688410]	0.08	-1.09				
[H]/N=C(/N)N[C@H]1[C@H](O)[C@@H](O)[C@H](O[C@@H]2O[C@@H](C)[C@](O)(C=O)[C@H]2O[C@@H]2O[C@@H](CO)[C@H](O)[C@@H](O)[C@@H]2NC)[C@@H](N/C(N)=N\[H])[C@@H]1O [MMV688994, Streptomycin, reference compound]					-0.55	0.19
CCN(CC)C(=O)N1CCN(C)CC1 [MMV002816, Diethylcarbamazine, reference compound]					-0.92	-1.56
Nc1nc(N)c2c3c(sc2n1)CN(Cc1ccccc1)CC3 [MMV688345]	-0.50	-0.61				
CS(=O)(=O)N1CCC(Cn2nc(Cc3cccc4ccccc34)c3c(N)ncnc32)CC1 [MMV676050]	0.49	0.36				
COc1cc2ncnc(NC3CCN(Cc4ccccc4)CC3)c2cc1OC [MMV006741]	-1.05	0.30				
Cc1nn(C(=O)Nc2cccc(C(F)(F)F)c2)c(C)c1Sc1ncccn1 [MMV688552]	0.35	1.89				
Cc1cccc(-c2nc(Nc3ccncn3)c3sccc3n2)n1 [MMV688122]	0.14	95.49	-0.80	-0.86		

Structure (SMILES)	PGI release, % of the Tx-100 control, 5d (5 days of incubation) [%]	PGI release, % of the Tx-100 control, 12d (12 days of incubation) [%]	PGI release, % of Tx-100 control, average, 5d (5 days of incubation) [%]	PGI release, % of Tx-100 control, average, 12d (12 days of incubation) [%]	cytotoxicity at 10 µM [1] [%]	cytotoxicity at 10 µM [2] [%]
O=C(C1CCN(c2cc(-n3cccc3)ncn2)CC1)N1CCc2ccccc2C1 [MMV687172]	1.69	-1.50				
CC(C)(C)CN1C(=O)C(c2ccccc2)(c2ccccc2)N=C1N [MMV026550]	3.21	3.61				
COC(=O)c1c(NC(=O)c2cc3ccccc3oc2=O)sc2c1CCN(Cc1ccccc1)C2 [MMV676480]	-0.80	1.41				
CCCCc1ccc(NC(=O)Nc2ccc(O[C@H]3CCCC[C@@H]3N(C)c3ccccc3)c(F)c2)cc1 [MMV676063]	2.73	76.51	-1.39	-1.33		
O=C(CCC1CCCCC1)Nc1cccc(-c2nnc(-c3ccco3)o2)c1 [MMV676589]	-1.81	2.20				
COC(=O)c1c(NC(=O)c2c(F)c(F)c(F)c(F)c2F)sc2c1CCCCC2 [MMV461553]	3.92	19.16				
CCOC(=O)c1noc(N)c1-c1ccccc1 [MMV1236379]	3.51	4.87				
O=C(NC1=NCCS1)c1sc2cc(F)ccc2c1Cl [MMV676584]	-1.36	1.53				
CC(C)(C)c1cc(C(=O)Nc2cccnc2)cc(C(=O)Nc2cccnc2)c1 [MMV020982]	1.45	12.41				
COc1cccc(-c2nc3c(N4CCCC4)cccc3n2CC2CCCN2)n1 (stereo not drawn) [MMV687703]	1.13	-0.35				
O=C(Nc1ccnc(-c2cccnc2)n1)c1cc(C(F)(F)F)cc(C(F)(F)F)c1 [MMV019838]	1.37	-0.96				
COc1ccc(C2=NN(C3CCCCCC3)C(=O)C2(C)C)cc1OCCCCOc1ccc(-c2nn[nH]n2)cc1 [MMV690028]	2.30	6.47				
CC(=O)NCC1CN(c2ccc(-c3ccc(CO)cc3)c(F)c2)C(=O)O1 (stereo not drawn) [MMV688508]	-0.03	-1.49				
O=C(NCc1cc(Cl)cc(Cl)c1)c1c(C(F)(F)F)nc2ccccn12 [MMV687699]	0.90	18.76				
CCCS(=O)(=O)N1CCC(CO)(Cc2ccccc2C(F)(F)F)CC1 [MMV001059]	1.56	1.44				
Cn1c(=O)c2c(S(C)(=O)=O)snc2n(C)c1=O [MMV687251]	5.41	6.23				
Cc1ccc(-c2cc(C(=O)Nc3cccnc3)c3cc(Br)ccc3n2)cc1 [MMV016838]	-0.19	-0.0545				
CN1CCN(CCCOc2ncc(Nc3ncc(-c4ccc(C(F)(F)F)c(F)c4)nc3C(N)=O)cn2)CC1 [MMV687812]	18.86	22.66	3.65	4.79		
CO/C=C(/C(=O)OC)c1ccccc1Oc1cc(Oc2ccccc2C#N)ncn1 [MMV021057, Azoxystrobin]	-0.65	-0.77				
CCOC(=O)c1cc(-c2csc(Nc3c(C)cc(C)cc3C)n2)on1 [MMV676461]	0.19	-0.25				
O=C(Cn1ccnc1[N+](=O)[O-])NCc1ccccc1 [MMV688773, Benznidazole, reference compound]					-0.2	1.37
COc1cc(C(F)(F)F)nc2ccc(C)c(N)c12 [MMV047015]	-0.69	-0.79				
Cc1cccnc1NC(=O)c1cccc(OCc2c(C)noc2C)c1 [MMV688793]	-3.90	-0.61				
Cc1nnc(NC(=O)c2cn(-c3ccccc3)nc2-c2ccccc2C)o1 [MMV020320]	-1.15	2.11				
O=C(NCCN1CCCC1)c1cc(NCCCCN2CCC(F)(F)CC2)nc2ccc(Cl)cc12 [MMV667494]	-0.60	-1.11				
COc1ccc(C2=NCCN2)cc1-c1cn(-c2cccc(C3=NCCN3)c2)nn1 [MMV688547]	-0.44	-1.41				
